Source: US8846951B2 (AbbVie Inc., priority 2009, dated 2014)
pEC50: −log10 of the molar value. Entries after “also recorded” stand apart in the source; their conditions may differ.

What was measured:
5HT2C receptors = target: T1, 5HT2C receptors (Homo sapiens, UniProt P28335); assay: Human 5-HT2C functional high throughput screening assay in CHO-K1 cells (calcium flux); format: cell-based; set-up: expressed in transfected cells; host or cells: CHO-K1 cells
T1 sequence (P28335 33-458): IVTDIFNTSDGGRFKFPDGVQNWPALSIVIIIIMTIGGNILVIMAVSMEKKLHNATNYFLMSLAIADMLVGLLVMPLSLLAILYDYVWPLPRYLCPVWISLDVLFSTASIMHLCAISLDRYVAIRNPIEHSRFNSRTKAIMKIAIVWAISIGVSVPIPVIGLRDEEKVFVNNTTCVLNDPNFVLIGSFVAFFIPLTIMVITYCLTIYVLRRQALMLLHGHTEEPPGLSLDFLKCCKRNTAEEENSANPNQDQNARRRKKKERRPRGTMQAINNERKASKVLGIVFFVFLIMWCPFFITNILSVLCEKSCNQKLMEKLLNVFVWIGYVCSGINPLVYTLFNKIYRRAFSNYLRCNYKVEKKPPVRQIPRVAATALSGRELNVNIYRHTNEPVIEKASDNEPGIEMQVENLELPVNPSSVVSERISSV
In short: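 Serum-starved CHO-K1 cells carrying the receptor; Ca4 dye, 60 min RT. Test compound added after a 10 s baseline, fluorescence followed for 3 min. EC50 from 4-parameter fit; Emax given as % of serotonin effect.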

SHR pups = assay: 5-trial inhibitory avoidance/impulsivity model in pups of spontaneously hypertensive rat; format: in vivo; details: sc 1, 3 and 10 mg/kg, acute, compared to vehicle
Text: (ix) 5-Trial Inhibitory Avoidance/Impulsivity Model in the Pups of Spontaneously Hypertensive Rat
However, the adult rats have spontaneous hypertension which may confound behavioral assessment. The juvenile SHRs were used in the current study since these pups show similar behavioral deficits while having not developed hypertension. The aim was to investigate the efficacy of 5-HT2c agonists in SHR pups in an inhibitory avoidance model, as indication of enhancement of inhibitory control/or anti-impulsivity.
SHR pups at postnatal day 21-28 were sc dosed with either vehicle or Example 115 (1, 3, and 10 mg/kg; dissolved in tartaric acid/PH4-6) 30 minutes prior to the test. Upon testing initiation, pups were placed into the light side of a computer controlling 2-chambered compartment. The latency to enter the adjoining dark chamber was recorded, and an inescapable footshock (0.1 mA, 1 second duration) was presented to the pup. The pup was removed, placed back into the home cage for approximately 1 minute, and the process repeated for a total of 5 trials. The dependent variable used for data analysis was the total transfer latency of trial 2 to trial 5.

- pEC50 (5HT2C receptors; 5-HT2C agonist activity, CHO-K1 cells, calcium flux, read-out: EC50): 8.70
- Emax (5HT2C receptors; CHO-K1, 5-HT2C, maximum functional response as percentage relative to the effect of serotonin, read-out: Emax): > 120%
Compound: CN1C[C@@H]2CNC(=O)c3cc(-c4ccc(F)cc4)ccc3[C@H]2C1 [Example 115, (3aS,10bS)-8-(4-Fluorophenyl)-2-methyl-1,2,3,3a,4,5-hexahydrobenzo[e]pyrrolo[3,4-c]azepin-6(10bH)-one]
- total transfer latency of trial 2 to trial 5 (SHR pups): dose-dependent increase in transfer latencies; also recorded: dose-dependent improvement in 5-trial inhibitory avoidance scores
